# Measurements as given in PMC12040169 (PLOS Biology, 2025).
# Experiment: in vitro
# Conditions: human, hela cells, % viability
row,Structure (SMILES),"viability at 28.5 h, 10 µM"
1,Cc1csc2ncc(C(=O)NCc3ccccc3)c(=O)n12 [CBK287290],89.3%
2,O=C(NCc1nc2ccccc2[nH]1)c1cc(Br)cnc1NCCOc1ccccc1 [CBK076220],104%
3,CCC(CN1CCOCC1)NC(=O)Cc1coc2c(C)c(C)ccc12 (stereo not shown) [CBK282813],82.1%
4,CC1C(=O)N(c2ccc(Cl)c(Cl)c2)C(=N)N1c1nc(N(C)C)nc(N(C)C)n1 (stereo not shown) [CBK263182],93.2%
5,O=S(=O)(CC(F)(F)F)Nc1ccc(N2CCNCC2)c2ccccc12 [CBK059354C],90.6%
6,c1csc(-c2cn3ccnc3c(NCC3CC3)n2)c1 [CBK066754],93.7%
7,COc1cc(C)c(-c2nc(C)nc(C)c2C)c(C)c1 [CBK306711],90.5%
8,CC1(C)CC(N(Cc2ccccc2)C(=O)Cc2ccco2)CCO1 (stereo not shown) [CBK019561],95.9%
9,c1cncc(CN2CCC[C@@H]2CN2CCCC2)c1 [CBK149101C],99.3%
10,Cc1ccc2nc(N3CCCC(O)C3)c(CN3CCC(F)CC3)cc2c1 (stereo not shown) [CBK307016],89.1%
11,CN1CCCN(Cc2ccc3c(c2)c(=O)c(C(=O)NCc2ccc(Cl)cc2)cn3C)CC1 [CBK018019],82.8%
12,Cc1ccc(S(=O)(=O)N2CCN(C(=O)C3C4C=CC(C4)C3C(=O)O)CC2)cc1 (stereo not shown) [CBK286944],106%
13,Cc1c(Cl)cccc1NC(=S)NNC(=O)C(C)Oc1ccc(F)cc1F (stereo not shown) [CBK266823],97.8%
14,CC1CCN(c2nc(-c3ccccc3O)nc3ccccc23)CC1 [CBK066899],109%
15,c1nc(Nc2ccc3[nH]ccc3c2)cc(-c2ccc3c(c2)OCO3)n1 [CBK037761],94.4%
16,CC1(C)CC(N(Cc2ccncc2)Cc2ccoc2)CC(C)(C)N1 [CBK283269],98.1%
17,c1ccc2c(c1)CCN(Cc1nc3ccccc3[nH]1)C2 [CBK126396],92.2%
18,OCCCNC(=S)Nc1ccc(Cl)cc1Cl [CBK265264],96.6%
19,COc1ccc(OC)c(C(C)NC(=O)C2CCN(Cc3cccc(C(F)(F)F)c3)CC2)c1 (stereo not shown) [CBK148764],95.7%
20,CCOc1cc(/C=N/NC(=O)CSc2nc(C)cc(C)n2)ccc1O [CBK262405],96.1%
21,Cc1oc(CSCc2cc(C(=O)O)c(C)o2)cc1C(=O)O [CBK264291],90.7%
22,Cc1c(-c2ccc(Cl)cc2Cl)nc2ccccc2c1C(=O)NCc1ccc(S(N)(=O)=O)cc1 [CBK265387],101%

row,Structure (SMILES),"viability at 28.5 h, 10 µM"
1,O=C(c1nc(=O)[nH][nH]1)N1CCN(Cc2ccc(C(F)(F)F)cc2)CC1 [CBK298312],95.5%
2,O=C(O)C1C2C=CC(C2)C1C(=O)NCc1ccncc1 (stereo not shown) [CBK265403],102%
3,Cc1ccc(S(=O)(=O)c2cccc(S(=O)(=O)N3CCOCC3)c2)cc1S(=O)(=O)N1CCOCC1 [CBK262117],109%
4,Cc1ccc(OCC(=O)Nc2ncc(Cc3ccc(F)cc3)s2)cc1 [CBK293930],82.2%
5,CCCN1CC(NS(=O)(=O)c2cc(-n3cccn3)ccc2OC)CC1=O (stereo not shown) [CBK307285],107%
6,COCc1nnc(Sc2cc(NC(C)C)ncn2)s1 [CBK093784],89.3%
7,COc1ncc(-c2nccnc2OCc2ccccc2)c(OC)n1 [CBK106748],108%
8,COc1cncc(-c2cncc(N3CCN(CCN(C)C)CC3)n2)c1 [CBK065393],120%
9,Cc1c(C(=O)N(C)Cc2cccn2C)[nH]c2ccccc12 [CBK283270],94.6%
10,CC(C)c1noc([C@@H]2Cc3[nH]cnc3CN2C(=O)Nc2ccccc2)n1 [CBK288969],86.5%
11,O=C(O)Cn1c2ccccc2c2nc3ccccc3nc21 [CBK263649],81.1%
12,O=C1CCC[C@]2(CN(C(=O)C3CC3)C[C@H]2c2ccc(F)c(F)c2)N1 [CBK283364],111%
13,COC1CCC(C(=O)N2CCC(COc3ccc(-c4ccc(S(C)(=O)=O)cc4)cn3)CC2)CC1 (stereo not shown) [CBK161995],80.3%
14,Cc1ccc(OCC(=O)N2CCCCC2c2nccs2)cc1 (stereo not shown) [CBK305091],88.7%
15,O=S(=O)(Nc1ccc(C(O)(C(F)(F)F)C(F)(F)F)cc1)c1cccc2nsnc12 [CBK062096],108%
16,NC1CC(c2cc(NCCOc3ccccc3Cl)ncn2)C1 (stereo not shown) [CBK307167],73.7%
17,CCOc1ccc(N2C(=O)CC(N3CCN(c4ccccn4)CC3)C2=O)cc1 (stereo not shown) [CBK263285],100%
18,COc1ccc(C(=O)O)cc1CN1CCOCC1 [CBK287029],102%
19,COc1ccc(CCCC(=O)Nc2cc(N3CCNCC3)ncn2)cc1OC [CBK107856],93.9%
20,CC(C)c1nccn1CC(=O)N(C)C(C)c1ccc(F)c(F)c1 (stereo not shown) [CBK306443],94.5%
21,COc1ccc(C(=O)N2C[C@@H](C)O[C@@H](C)C2)c(OC)n1 [CBK200231],92.2%
22,Cc1cc(C)c2sc(NC(=O)c3ccccc3)nc2c1 [CBK287614],104%

row,Structure (SMILES),"viability at 28.5 h, 10 µM"
1,O=C(Cn1c(C2CCNCC2)cc2cccnc21)N1CCCC1 [CBK285013],96.3%
2,S=c1[nH]nc(Cn2ccc(-c3ccccc3)n2)o1 [CBK022019],108%
3,Cc1cc(-c2cn3cc(C(=O)N4CCCC4C)nc3c(=O)n2C)c(C)o1 (stereo not shown) [CBK307038],84.8%
4,C[C@@H]1c2c(C(=O)OC(C)(C)C)ncn2-c2ccc(F)cc2N1CC(=O)N1CCCC1 [CBK016704],85.3%
5,Cc1cc(COc2ccnc(N3CCCN(CC(N)=O)CC3)n2)no1 [CBK084036],85.9%
6,CCc1ccccc1Nc1nnc(SC(C)C(=O)N2CCCC2)s1 (stereo not shown) [CBK295197],106%
7,Cc1cccc(-c2cncc(C3CCCN(C(=O)Cc4c[nH]c5ccccc45)C3)n2)c1 (stereo not shown) [CBK286149],84.1%
8,O=C(CC1S/C(=N/N=C/c2ccccc2C(=O)O)NC1=O)Nc1ccccc1 (stereo not shown) [CBK264515],99.7%
9,COC(=O)[C@@H]1Cc2ncn(Cc3ccc(Cl)cc3)c2CN1C(=O)c1ccc(OC)cc1 [CBK288983],84.2%
10,CN1CCC(CN(C)Cc2ccc3cccc(Cl)c3n2)C1 (stereo not shown) [CBK282615],90.2%
11,CS(=O)(=O)N1CC2(CCN(Cc3ccc4nsnc4c3)CC2)c2ccccc21 [CBK136957],92.9%
12,Cn1c(=O)c2cnc(-c3ccccc3Cl)nc2n(C)c1=O [CBK291219],85.7%
13,Cc1ccc(N2CCCN(C(=O)CCc3ccsc3)CC2)nn1 [CBK304573],91.1%
14,COc1cc(CN2CCCN(C)CC2)c([N+](=O)[O-])cc1OC [CBK261539],90.2%
15,COc1cccc(NC(=O)C2C(C(=O)O)C3C=CC2C32CC2)c1 (stereo not shown) [CBK287106],81.6%
16,CCn1c(C)nc2cc(NC(=O)Cn3cccn3)ccc21 [CBK281828],89.5%
17,Cc1ccc(C2(CN3CCN(Cc4cncn4C)CC3)CC2)cc1 [CBK283308],107%
18,O=C(CNC(=O)c1ccco1)Nc1cccc(-c2nc3ccccc3s2)c1 [CBK295142],85.4%
19,COc1ccc(C(=O)C2=C(O)C(=O)N(CCN(C)C)C2c2cccc([N+](=O)[O-])c2)cc1C (stereo not shown) [CBK264875],85.2%
20,CC(=O)N1CCCc2cc(C(O)CN3CCC(C)CC3)ccc21 (stereo not shown) [CBK282588],87.3%
21,COCC(=O)N1CCc2sccc2C1c1ccc(NCc2cccc(OC)c2)cc1 (stereo not shown) [CBK286454],92.9%
22,Cc1nc(C2CCCN(C(=O)C3CCCO3)C2)c2sccn12 (stereo not shown) [CBK282241],106%

row,Structure (SMILES),"viability at 28.5 h, 10 µM"
1,C/C(=N\NC(=O)c1nc(-c2ccccc2)cc(-c2ccccc2)n1)c1ccc(F)cc1 [CBK262826],110%
2,CC(C)CC(NC(=O)N1CCOc2ccc(Cl)cc2C1)c1ncnn1C (stereo not shown) [CBK306544],115%
3,Nc1ncc(-c2ccc3c(c2)OCO3)nc1-c1ccc(O)cc1 [CBK122505],94.7%
4,Cc1ccc(C2CC(=O)C(=CNCCN3CCN(C(=S)Nc4ccccc4)CC3)C(=O)C2)cc1 (stereo not shown) [CBK263665],96.3%
5,Cc1ccc(C)n1-c1ccc(CC(=O)O)cc1 [CBK116374],92.2%
6,CCOc1cc(OCC)cc(C(=O)N2CCCC3(CC2)CC(=O)c2ccc(C)cc2O3)c1 (stereo not shown) [CBK168241],98.2%
7,Nc1ncc(-c2ccc(C(=O)N3CCOCC3)cc2)nc1-c1ccc(C[C@H](N)C(=O)O)cc1 [CBK126364],97%
8,O=S(=O)(NCC(c1ccccc1)N1CCNCC1)c1ccccc1 (stereo not shown) [CBK262813],105%
9,CCCN(C(=O)c1coc(COc2ccc3sc(C)nc3c2)n1)C1CC1 [CBK306878],84%
10,Fc1ccc(CNc2c(-c3ccco3)nc3cnccn23)cc1 [CBK283694],92%
11,N#Cc1cccc(CN2CC[C@H](c3nnc(-c4ccco4)o3)C2)c1 [CBK289394],92.5%
12,O=C(O)c1cc(Cl)c2c(c1)[C@@H]1C=CC[C@@H]1[C@H](c1cccc(Br)c1)N2 [CBK077927],106%
13,CC(=O)Nc1sc2c(c1C(=O)O)CCc1ccccc1-2 [CBK126812],96.9%
14,N#CCCNCC1COc2ccccc2O1 (stereo not shown) [CBK026615],97.7%
15,CN(Cc1ccccc1)C(=O)CNS(=O)(=O)c1ccc([N+](=O)[O-])cc1 [CBK268586],107%
16,NC(=O)C1CCN(c2ncnc3c2oc2ccccc23)CC1 [CBK287789],87.6%
17,CCN(CC)C(=O)N1CCC2(CC1)CC(=O)c1ccccc1O2 [CBK283495],105%
18,CCC(CC)C(=O)Nc1nc(OC)cnc1-c1ccc(OCOC)cc1 [CBK145207],108%
19,Cc1cc(C)cc(-c2ccc(CC3(C(=O)NC(C)CO)CCOCC3)cc2)c1 (stereo not shown) [CBK286523],110%
20,COc1ccccc1-c1ccc(CC2(C(=O)NCCc3ccccc3)CCOCC2)cc1 [CBK286516],102%
21,COc1ccc(S(=O)(=O)N(C)CC(=O)O)c2ccccc12 [CBK268459],105%

# Same assay, conditions: human, hela cells, % viability, bulk resorufin, single well
row,Structure (SMILES),"viability at 28.5 h, 10 µM"
1,CCOC(=O)c1ccc(NC(=O)c2c(O)[nH]c(=O)[nH]c2=O)cc1 [CBK115565],84.7%
